{"source": "patent US20110256240A1", "about": "“Combination Therapy” (priority 2004, published 2011)", "system": "range of tumour models", "assay": "anti-tumour activity in a range of models", "format": "in vivo", "conditions": "once-daily oral administration"}
{"smiles": "COc1cc2c(Oc3ccc4[nH]c(C)cc4c3F)ncnc2cc1OCCCN1CCCC1", "note": "[AZD2171, 4-(4-fluoro-2-methyl-1H-indol-5-yloxy)-6-methoxy-7-(3-(pyrrolidin-1-yl)propoxy)quinazoline]", "values": [{"measurement": "anti-tumour activity in a range of models", "result": "broad-spectrum anti-tumour activity"}]}
